Data taken from publication PMC7311426, “An amphipathic peptide with antibiotic activity against multidrug-resistant Gram-negative bacteria” (Nature Communications, 2020).
In brackets after ≈: the same amount, converted by molar mass.

Test system: A. baumannii clinical isolates
Assay: microbe, parasite or virus in culture
Description: The in vitro activity of AA139 and comparator antimicrobials was determined in two panels of clinical isolates of E. coli, K. pneumoniae, P. aeruginosa, and A. baumannii (Supplementary Table 3), and MIC90 presented. The US panel consisted of 331 clinical isolates from 2010 to 2012. It was tested by BMD in accordance with the CLSI guidelines (M07-A9, 2012)[39]. […] AA139 was diluted in 0.01% acetic acid/0.1% bovine serum albumin. Sterile polypropylene culture cluster round-bottom 96-well plates (Costar # 3879) were used for testing. The worldwide panel consisted of 445 clinical isolates from 2011 to 2013, geographically divided into Asia, Europe, North America, and Rest of World (Middle East, Latin America, Africa, and South Pacific) with each region representing ~25% of the isolates. It was tested by broth microdilution in accordance with the CLSI guidelines (M07-A9, 2012)[39]. […] The test media was CAMHB (Becton Dickinson). AA139 and polymyxin B were tested in media supplemented with 0.002% Tween 80 (Calbiochem). MIC90 values were calculated for all or subsets of the isolates. MIC correlation between AA139 and colistin was analyzed with data from the US panel.

[1] = US isolates 2010-2012, isolate CID 1919446, Rep 1
[2] = US isolates 2010-2012, isolate CID 1919446, Rep 2
[3] = US isolates 2010-2012, isolate CID 1919519, Rep 1
[4] = US isolates 2010-2012, isolate CID 1919519, Rep 2
[5] = US isolates 2010-2012, isolate CID 1919714, Rep 1
[6] = US isolates 2010-2012, isolate CID 1919714, Rep 2
[7] = US isolates 2010-2012, isolate CID 1919942, Rep 1
[8] = US isolates 2010-2012, isolate CID 1919942, Rep 2
[9] = US isolates 2010-2012, isolate CID 1930670, Rep 1
[10] = US isolates 2010-2012, isolate CID 1930670, Rep 2
[11] = US isolates 2010-2012, isolate CID 1930676, Rep 1
[12] = US isolates 2010-2012, isolate CID 1930676, Rep 2
[13] = US isolates 2010-2012, isolate CID 2727597, Rep 1
[14] = US isolates 2010-2012, isolate CID 2727597, Rep 2
[15] = US isolates 2010-2012, isolate CID 2727598, Rep 1
[16] = US isolates 2010-2012, isolate CID 2727598, Rep 2
[17] = US isolates 2010-2012, isolate CID 2727898, Rep 1
[18] = US isolates 2010-2012, isolate CID 2727898, Rep 2
[19] = US isolates 2010-2012, isolate CID 2728115, Rep 1
[20] = US isolates 2010-2012, isolate CID 2728115, Rep 2
[21] = US isolates 2010-2012, isolate CID 2728119, Rep 1
[22] = US isolates 2010-2012, isolate CID 2728119, Rep 2
[23] = US isolates 2010-2012, isolate CID 2728650, Rep 1
[24] = US isolates 2010-2012, isolate CID 2728650, Rep 2
[25] = US isolates 2010-2012, isolate CID 2728663, Rep 1
[26] = US isolates 2010-2012, isolate CID 2728663, Rep 2
[27] = US isolates 2010-2012, isolate CID 2732481, Rep 1
[28] = US isolates 2010-2012, isolate CID 2732481, Rep 2
[29] = US isolates 2010-2012, isolate CID 2732486, Rep 1
[30] = US isolates 2010-2012, isolate CID 2732486, Rep 2
[31] = US isolates 2010-2012, isolate CID 2762740, Rep 1
[32] = US isolates 2010-2012, isolate CID 2762740, Rep 2
[33] = US isolates 2010-2012, isolate CID 2801947, Rep 1
[34] = US isolates 2010-2012, isolate CID 2801947, Rep 2
[35] = US isolates 2010-2012, isolate CID 2801949, Rep 1
[36] = US isolates 2010-2012, isolate CID 2801949, Rep 2
[37] = US isolates 2010-2012, isolate CID 2802027, Rep 1
[38] = US isolates 2010-2012, isolate CID 2802027, Rep 2
[39] = US isolates 2010-2012, isolate CID 2802028, Rep 1
[40] = US isolates 2010-2012, isolate CID 2802028, Rep 2
[41] = US isolates 2010-2012, isolate CID 2802029, Rep 1
[42] = US isolates 2010-2012, isolate CID 2802029, Rep 2
[43] = US isolates 2010-2012, isolate CID 2802031, Rep 1
[44] = US isolates 2010-2012, isolate CID 2802031, Rep 2
[45] = US isolates 2010-2012, isolate CID 2802109, Rep 2
[46] = US isolates 2010-2012, isolate CID 2802111, Rep 2
[47] = US isolates 2010-2012, isolate CID 2802187, Rep 1
[48] = US isolates 2010-2012, isolate CID 2802187, Rep 2

`CN(C)c1cc(NC(=O)CNC(C)(C)C)c(O)c2c1C[C@H]1C[C@H]3[C@H](N(C)C)C(O)=C(C(N)=O)C(=O)[C@@]3(O)C(O)=C1C2=O` [Tig] showed an MIC [1] of 2 µg/mL (≈ 3.41 µM), an MIC [2] of 1 µg/mL (≈ 1.71 µM) and an MIC [3] of 2 µg/mL (≈ 3.41 µM). It also gave an MIC [4] of 2 µg/mL (≈ 3.41 µM), an MIC [5] of 2 µg/mL (≈ 3.41 µM) and an MIC [6] of 2 µg/mL (≈ 3.41 µM). For the same compound, the MIC [7] was 0.25 µg/mL (≈ 0.427 µM), the MIC [8] was 0.5 µg/mL (≈ 0.854 µM) and the MIC [9] was 0.5 µg/mL (≈ 0.854 µM). The MIC [10] was 1 µg/mL (≈ 1.71 µM), the MIC [11] was 0.25 µg/mL (≈ 0.427 µM) and the MIC [12] was 0.25 µg/mL (≈ 0.427 µM). The MIC [13] was 2 µg/mL (≈ 3.41 µM), the MIC [14] was 2 µg/mL (≈ 3.41 µM) and the MIC [15] was 1 µg/mL (≈ 1.71 µM). The MIC [16] was 1 µg/mL (≈ 1.71 µM), the MIC [17] was 0.12 µg/mL (≈ 0.205 µM) and the MIC [18] was 0.12 µg/mL (≈ 0.205 µM). For the same compound, the MIC [19] was 2 µg/mL (≈ 3.41 µM), the MIC [20] was 2 µg/mL (≈ 3.41 µM) and the MIC [21] was 2 µg/mL (≈ 3.41 µM). For the same compound, the MIC [22] was 2 µg/mL (≈ 3.41 µM), the MIC [23] was 1 µg/mL (≈ 1.71 µM) and the MIC [24] was 1 µg/mL (≈ 1.71 µM). The MIC [25] was 2 µg/mL (≈ 3.41 µM), the MIC [26] was 1 µg/mL (≈ 1.71 µM) and the MIC [27] was 2 µg/mL (≈ 3.41 µM). It also gave an MIC [28] of 1 µg/mL (≈ 1.71 µM), an MIC [29] of 1 µg/mL (≈ 1.71 µM) and an MIC [30] of 1 µg/mL (≈ 1.71 µM). It also gave an MIC [31] of 0.5 µg/mL (≈ 0.854 µM), an MIC [32] of 8 µg/mL (≈ 13.7 µM) and an MIC [33] of 0.25 µg/mL (≈ 0.427 µM). For the same compound, the MIC [34] was 0.12 µg/mL (≈ 0.205 µM), the MIC [35] was 0.5 µg/mL (≈ 0.854 µM) and the MIC [36] was 0.25 µg/mL (≈ 0.427 µM). For the same compound, the MIC [37] was 1 µg/mL (≈ 1.71 µM), the MIC [38] was 0.5 µg/mL (≈ 0.854 µM) and the MIC [39] was 0.5 µg/mL (≈ 0.854 µM). The MIC [40] was 0.5 µg/mL (≈ 0.854 µM), the MIC [41] was 2 µg/mL (≈ 3.41 µM) and the MIC [42] was 2 µg/mL (≈ 3.41 µM). The MIC [43] was 1 µg/mL (≈ 1.71 µM), the MIC [44] was 1 µg/mL (≈ 1.71 µM) and the MIC [45] was 1 µg/mL (≈ 1.71 µM). It also gave an MIC [46] of 2 µg/mL (≈ 3.41 µM), an MIC [47] of 0.25 µg/mL (≈ 0.427 µM) and an MIC [48] of 0.25 µg/mL (≈ 0.427 µM).
With `C[C@@H](O)[C@H]1C(=O)N2C(C(=O)O)=C(S[C@@H]3CN[C@H](C(=O)N(C)C)C3)[C@H](C)[C@H]12` [Mero] the MIC [1] was 1 µg/mL (≈ 2.61 µM), the MIC [2] was 2 µg/mL (≈ 5.22 µM) and the MIC [3] was greater than 16 µg/mL. The MIC [4] was greater than 16 µg/mL, the MIC [5] was greater than 16 µg/mL and the MIC [6] was greater than 16 µg/mL. The MIC [7] was 1 µg/mL (≈ 2.61 µM), the MIC [8] was 1 µg/mL (≈ 2.61 µM) and the MIC [9] was 16 µg/mL (≈ 41.7 µM). The MIC [10] was greater than 16 µg/mL, the MIC [11] was 0.5 µg/mL (≈ 1.3 µM) and the MIC [12] was 0.5 µg/mL (≈ 1.3 µM). It also gave an MIC [13] greater than 16 µg/mL, an MIC [14] greater than 16 µg/mL and an MIC [15] greater than 16 µg/mL. For the same compound, the MIC [16] was greater than 16 µg/mL, the MIC [17] was 0.5 µg/mL (≈ 1.3 µM) and the MIC [18] was 0.5 µg/mL (≈ 1.3 µM). It also gave an MIC [19] greater than 16 µg/mL, an MIC [20] greater than 16 µg/mL and an MIC [21] greater than 16 µg/mL. It also gave an MIC [22] greater than 16 µg/mL, an MIC [23] of 16 µg/mL (≈ 41.7 µM) and an MIC [24] of 16 µg/mL (≈ 41.7 µM). For the same compound, the MIC [25] was 1 µg/mL (≈ 2.61 µM), the MIC [26] was 2 µg/mL (≈ 5.22 µM) and the MIC [27] was greater than 16 µg/mL. The MIC [28] was greater than 16 µg/mL, the MIC [29] was greater than 16 µg/mL and the MIC [30] was greater than 16 µg/mL. It also gave an MIC [31] greater than 16 µg/mL, an MIC [32] greater than 16 µg/mL and an MIC [33] of 0.25 µg/mL (≈ 0.652 µM). The MIC [34] was 0.25 µg/mL (≈ 0.652 µM), the MIC [35] was 1 µg/mL (≈ 2.61 µM) and the MIC [36] was 0.25 µg/mL (≈ 0.652 µM). The MIC [37] was greater than 16 µg/mL, the MIC [38] was greater than 16 µg/mL and the MIC [39] was greater than 16 µg/mL. For the same compound, the MIC [40] was greater than 16 µg/mL, the MIC [41] was greater than 16 µg/mL and the MIC [42] was greater than 16 µg/mL. It also gave an MIC [43] of 1 µg/mL (≈ 2.61 µM), an MIC [44] of 1 µg/mL (≈ 2.61 µM) and an MIC [45] greater than 16 µg/mL. It also gave an MIC [46] greater than 16 µg/mL, an MIC [47] of 1 µg/mL (≈ 2.61 µM) and an MIC [48] of 2 µg/mL (≈ 5.22 µM).
